1 compound from publication PMC3164524 (Biochemistry, 2011) can be followed below.

The term IC50 denotes the midpoint of a concentration-inhibition curve. Higher therefore signals weaker potency.

Square brackets hold non-standard residues; d marks the D form. Peptide text beside a SMILES is read from it. pY = N[C@@H](Cc1ccc(OP(=O)(O)O)cc1)C(=O)O

The target of this test is T1, SHP-2 N-SH2 domain (Homo sapiens, UniProt Q06124).
T1 sequence (Q06124 1-106): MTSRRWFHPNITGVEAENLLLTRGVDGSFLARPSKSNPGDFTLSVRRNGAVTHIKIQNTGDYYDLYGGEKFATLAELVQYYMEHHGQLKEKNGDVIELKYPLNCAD
In words: SPR competition assay against immobilized pYAQL peptide. Format: binding.

As for `CC(C)C[C@H](NC(=O)[C@H](CCC(N)=O)NC(=O)[C@H](C)NC(=O)[C@H](Cc1ccc(OP(=O)(O)O)cc1)NC(=O)[C@H](CC(N)=O)NC(=O)[C@H](CC(C)C)NC(=O)[C@@H](N)CCCNC(=N)N)C(=O)N[C@@H](Cc1c[nH]c2ccccc12)C(=O)N[C@@H](Cc1c[nH]cn1)C(=O)N[C@@H](CCCNC(=N)N)C(N)=O` [pYAQL] (H-RLN[pY]AQLWHR-NH2), the IC50 worked out at 0.6 ± 0.1 µM.
